The source made the active and inactive calls. The rule behind the calls is not given here.
Legend:
[1] = Cytotoxicity against human HCT-116 cells assessed as cell viability at 10 uM incubated for 24 hrs by CCK8 assay relative to control; format: cell-based; settings: read-out: Activity
[2] = Sodium reactivity in pH 7 C2H5OH/PBS assessed as change in fluorescence at 50 uM
[3] = Cysteine reactivity in pH 7 C2H5OH/PBS assessed as change in fluorescence at 50 uM
[4] = Bicarbonate reactivity in pH 7 C2H5OH/PBS assessed as change in fluorescence at 50 uM
[5] = Potassium reactivity in pH 7 C2H5OH/PBS assessed as change in fluorescence at 50 uM
[6] = Nitrate reactivity in pH 7 C2H5OH/PBS assessed as change in fluorescence at 50 uM
[7] = Sulfate reactivity in pH 7 C2H5OH/PBS assessed as change in fluorescence at 50 uM
[8] = Glutathione reactivity in pH 7 C2H5OH/PBS assessed as change in fluorescence at 50 uM
[9] = Chloride reactivity in pH 7 C2H5OH/PBS assessed as change in fluorescence at 50 uM
[10] = Iodide reactivity in pH 7 C2H5OH/PBS assessed as change in fluorescence at 50 uM
[11] = Cytotoxicity against human HCT-116 cells assessed as cell viability up to 50 uM incubated for 24 hrs by CCK8 assay relative to control; format: cell-based; settings: read-out: Activity
[12] = […] reactivity in pH 7 C2H5OH/PBS assessed as change in fluorescence at 50 uM
[13] = Acetate reactivity in pH 7 C2H5OH/PBS assessed as change in fluorescence at 50 uM
[14] = Bromide reactivity in pH 7 C2H5OH/PBS assessed as change in fluorescence at 50 uM
[15] = Thiocyanate reactivity in pH 7 C2H5OH/PBS assessed as change in fluorescence at 50 uM
[16] = Hydrogen sulphide reactivity in pH 7 C2H5OH/PBS assessed as change in fluorescence at 50 uM
[17] = Zinc reactivity in pH 7 C2H5OH/PBS assessed as change in fluorescence at 50 uM
[18] = Drug accumulation in human HCT116 cells up to 100 uM in presence of Na2S; format: ADME, cell-based; settings: hct-116
[19] = Phosphoric acid reactivity in pH 7 C2H5OH/PBS assessed as change in fluorescence at 50 uM

CN(C)c1ccc2c(c1)Sc1cc(N(C)C)ccc1N2c1ccc([N+](=O)[O-])c2nonc12
viability at 24 h, 10 µM [1]: > 85% | Activity [2]: inactive | Activity [3]: Active | Activity [4]: inactive | Activity [5]: inactive | Activity [6]: inactive | Activity [7]: inactive | Activity [8]: Active | Activity [9]: inactive | Activity [10]: inactive | viability at 24 h [11]: 64% | Activity [12]: inactive | Activity [13]: inactive | Activity [14]: inactive | Activity [15]: inactive | Activity [16]: Active | Activity [17]: inactive | Drug uptake [18]: Active | Activity [19]: inactive
